Experimental data reported in US20060252740A1 (priority 2005, published 2006).

What was measured:
[1] = Dose limiting toxicity and drug-related toxicities in dose-escalating clinical trial; type: in vivo, human; conditions: twice weekly for two out of three weeks (Days 1, 4, 8, 11; 21 day cycle)
Protocol: Eighteen patients were treated in accordance with this protocol.

[2] = test system: adult patients with solid tumors; conditions: cited from earlier work
[3] = test system: patients with solid tumors and lymphomas; conditions: cited from earlier work
[4] = test system: patients with advanced malignancies incl. metastatic melanoma; conditions: cited from earlier work
[5] = test system: SKBr3 breast cancer cells; conditions: cited from earlier work
[6] = test system: patients with advanced solid tumors; conditions: cited from earlier work
[7] = test system: MEXF 276L melanoma cells; conditions: cited from earlier work
[8] = test system: breast cancer cells; conditions: cited from earlier work
[9] = test system: NSCLC cells; conditions: cited from earlier work
[10] = clinical
Protocol: PK assessments included the following tests. […] The total number of PK samples collected was approximately 115 mL of whole blood (7-8 tablespoons). If a patient experienced a potentially drug-related SAE, additional PK samples were collected. Blood was drawn from the contralateral arm to the infusion site using an indwelling catheter to avoid multiple needle sticks. […] The blood tube was inverted several times and the tube placed in wet ice immediately pending separation of the plasma. If a catheter was used for blood collection, the fluid in the catheter was completely withdrawn prior to each sample collection and discarded. Plasma samples were kept on wet ice during collection and centrifugation. Plasma samples were split into two cryovials prior to freezing at −70° C.

[11] = test system: diffuse GFP positive MM lesions; conditions: SCID/NOD mice; cited from earlier work
[12] = test system: colon adenocarcinoma cells; conditions: cited from earlier work
[13] = test system: patients with advanced solid tumors; conditions: cited from earlier work; remark: listed apart in the source
[14] = highest dose level (450 mg/m^2)
[15] = Cohorts 1 & 2, 17-AAG 100 mg/m^2, Max
[16] = Cohorts 1 & 2, 17-AAG 100 mg/m^2, Mean
[17] = Cohorts 1 & 2, 17-AAG 100 mg/m^2, Median
[18] = Cohorts 1 & 2, 17-AAG 100 mg/m^2, Min
[19] = Cohorts 3 & 4, 17-AAG 150 mg/m^2, Max
[20] = Cohorts 3 & 4, 17-AAG 150 mg/m^2, Mean
[21] = Cohorts 3 & 4, 17-AAG 150 mg/m^2, Median
[22] = Cohorts 3 & 4, 17-AAG 150 mg/m^2, Min

C=CCNC1=C2C[C@@H](C)C[C@H](OC)[C@H](O)[C@@H](C)/C=C(\C)[C@H](OC(N)=O)[C@@H](OC)/C=C\C=C(/C)C(=O)NC(=CC1=O)C2=O [17-AAG, 17-Allylamino-17-demethoxygeldanamycin]
17-AAG dose employed without reaching dose limiting toxicity (DLT) in any treated patient [1]: 275 mg/m^2 | maximum tolerated dose (MTD) and recommended Phase 2 dose ([2]; daily for 5 days every 3 weeks): 40 mg/m^2 | dose limiting toxicity ([2]; daily x5 schedule): reversible hepatotoxicity | objective tumor responses ([2]; doses up to 110 mg/m^2): No objective tumor responses | VZ ([2]; in vivo): 93 L/m^2 | Clearance ([2]; patients treated at 56 mg/m^2): 19.9 L/h/m^2 | average AUC ([2]; patients treated at 56 mg/m^2): 6,708 nM*h | levels of Hsp90 client proteins ([3]; during therapy): unchanged during therapy | objective tumor responses ([3]; to date): No objective tumor responses | MTD ([3]; weekly 17-AAG, 3 weeks out of a 4 week cycle): 308 mg/m^2 | dose reached without significant toxicity ([3]; weekly dosing): 112 mg/m^2 | mean peak plasma level ([4]; 450 mg/m^2): 8,998 μg/L | mean volume of distribution ([4]; 450 mg/m^2): 142.6 L | induction of the co-chaperone protein Hsp70 ([4]; 320-450 mg/m^2/week): 8 of 9 | CDK4 depletion in tumor biopsies ([4]; at 24 hours): 8 out of 9 | Raf-1 depletion in tumor biopsies ([4]; at 24 hours): 4 out of 6 | period plasma 17-AAG concentrations remained above 120 nM [4, 14]: > 24 h | plasma 17-AAG concentrations [4, 14]: exceeded 10 μM | complete or partial responses ([4]; in vivo): No complete or partial responses | dose at which dose limiting toxicity was observed ([4]; once weekly, grade ¾ elevation of AST): 450 mg/m^2/week | stable disease ([4]; patients treated at 320-450 mg/m^2): two showed radiologically documented long term stable disease | effect of exposure on client proteins [5]: depletion of erbB2 and destabilization of Raf-1 and mutant p53 | toxicities observed ([6]; dose of 395 mg/m^2): nausea and vomiting secondary to pancreatitis and grade 3 fatigue | 17-AAG metabolized to 17-AG (metabolic clearance) ([6]; population PK analysis): 46.4% | Vd (volume of distribution), central compartment ([6]; population PK analysis): 24.2 L | Vd (volume of distribution), peripheral compartment ([6]; population PK analysis): 89.6 L | objective tumor responses ([6]; to date): No objective tumor responses | effect of exposure on client proteins [7]: depletion of Hsp90 and down-regulation of Raf-1 and erbB2 | effect of exposure on client proteins [8]: depletion of steroid receptors | effect of exposure on client proteins [9]: depletion of erbB1 (EGFR) and erbB2 (p185) levels | AUCext [10, 15]: 10.80% | AUCextra [10, 15]: 608.6 ng·h/mL | AUClast [10, 15]: 7,248.8 ng/mL * h | AUCtotal [10, 15]: 7,857.4 ng/mL * h | Cmax [10, 15]: 2,620 ng/mL | MRT [10, 15]: 6.04 h | Tmax [10, 15]: 3 h | t1/2 [10, 15]: 5.16 h | AUCext [10, 16]: 6% | AUCtotal [10, 16]: 3,805 ng/mL * h | Clearance [10, 16]: 28.63 L/h/m^2 | Vss [10, 16]: 93.88 L/m^2 | Vz [10, 16]: 104.58 L/m^2 | AUCext [10, 17]: 6.10% | AUCtotal [10, 17]: 3,513.8 ng/mL * h | Clearance [10, 17]: 28.46 L/h/m^2 | Vss [10, 17]: 79.65 L/m^2 | Vz [10, 17]: 99.17 L/m^2 | AUCext [10, 18]: 2.54% | AUCextra [10, 18]: 87.9 ng·h/mL | AUClast [10, 18]: 2,231.7 ng/mL * h | AUCtotal [10, 18]: 2,380.5 ng/mL * h | Cmax [10, 18]: 755 ng/mL | MRT [10, 18]: 2.37 h | Tmax [10, 18]: 0.5 h | t1/2 [10, 18]: 1.72 h | AUCext [10, 19]: 10.5% | AUCextra [10, 19]: 595 ng·h/mL | AUClast [10, 19]: 17,650 ng/mL * h | AUCtotal [10, 19]: 18,246 ng/mL * h | Cmax [10, 19]: 9,540 ng/mL | MRT [10, 19]: 6.0 h | Tmax [10, 19]: 2.17 h | t1/2 [10, 19]: 5.7 h | AUCext [10, 20]: 5% | AUCtotal [10, 20]: 6,030 ng/mL * h | Clearance [10, 20]: 28.94 L/h/m^2 | Vss [10, 20]: 80.89 L/m^2 | Vz [10, 20]: 94.79 L/m^2 | AUCext [10, 21]: 3.8% | AUCtotal [10, 21]: 5,071 ng/mL * h | Clearance [10, 21]: 29.6 L/h/m^2 | Vss [10, 21]: 84.3 L/m^2 | Vz [10, 21]: 93.7 L/m^2 | AUCext [10, 22]: 0.9% | AUCextra [10, 22]: 54 ng·h/mL | AUClast [10, 22]: 3,152 ng/mL * h | AUCtotal [10, 22]: 3,294 ng/mL * h | Cmax [10, 22]: 1,830 ng/mL | MRT [10, 22]: 1.5 h | Tmax [10, 22]: 0.5 h | t1/2 [10, 22]: 1.6 h | Total systemic clearance ([10]; cohorts 1-4 combined): 28.83±8.51 L/h/m^2 | distributive volume VSS ([10]; cohorts 1-4 combined): 85.25±31.60 L/m^2 | distributive volume VZ ([10]; cohorts 1-4 combined): 98.05±36.41 L/m^2 | Clearance ([10]; human, in vivo, 100 mg/m2): 924 mL/min | Vd ([10]; human, in vivo, 100 mg/m2, Vss, Cohorts 1 & 2, 17-AAG 100 mg/m^2, Median): 159 L | half-life ([10]; human, in vivo, 150 mg/m2): 2.2 h | Vd ([10]; human, in vivo, 150 mg/m2, Vss, Cohorts 3 & 4, 17-AAG 150 mg/m^2, Mean): 143 L | Vd ([10]; human, in vivo, 150 mg/m2, Vz, Cohorts 3 & 4, 17-AAG 150 mg/m^2, Median): 172 L | Vd ([10]; human, in vivo, distributive volume VZ, cohorts 1-4 combined): 175 ± 68.2 L | AUC ([10]; human, plasma, intravenous, 100 mg/m2, AUCextra, Cohorts 1 & 2, 17-AAG 100 mg/m^2, Mean): 225 ng·h/mL | AUC ([10]; human, plasma, intravenous, 100 mg/m2, AUCextra, Cohorts 1 & 2, 17-AAG 100 mg/m^2, Median): 166 ng·h/mL | AUC(0-t) ([10]; human, plasma, intravenous, 100 mg/m2, AUClast, Cohorts 1 & 2, 17-AAG 100 mg/m^2, Mean): 3580 ng·h/mL | AUC(0-t) ([10]; human, plasma, intravenous, 100 mg/m2, AUClast, Cohorts 1 & 2, 17-AAG 100 mg/m^2, Median): 3350 ng·h/mL | Clearance ([10]; human, plasma, intravenous, 100 mg/m2, Clearance, Cohorts 1 & 2, 17-AAG 100 mg/m^2, Mean): 879 mL/min | Cmax ([10]; human, plasma, intravenous, 100 mg/m2, Cmax, Cohorts 1 & 2, 17-AAG 100 mg/m^2, Mean): 1790 ng/mL | Cmax ([10]; human, plasma, intravenous, 100 mg/m2, Cmax, Cohorts 1 & 2, 17-AAG 100 mg/m^2, Median): 1740 ng/mL | MRT ([10]; human, plasma, intravenous, 100 mg/m2, MRT, Cohorts 1 & 2, 17-AAG 100 mg/m^2, Mean): 3.32 h | MRT ([10]; human, plasma, intravenous, 100 mg/m2, MRT, Cohorts 1 & 2, 17-AAG 100 mg/m^2, Median): 2.89 h | Tmax ([10]; human, plasma, intravenous, 100 mg/m2, Tmax, Cohorts 1 & 2, 17-AAG 100 mg/m^2, Mean): 1 h | Tmax ([10]; human, plasma, intravenous, 100 mg/m2, Tmax, Cohorts 1 & 2, 17-AAG 100 mg/m^2, Median): 1 h | Vd ([10]; human, plasma, intravenous, 100 mg/m2, Vss, Cohorts 1 & 2, 17-AAG 100 mg/m^2, Mean): 174 L | Vd ([10]; human, plasma, intravenous, 100 mg/m2, Vz, Cohorts 1 & 2, 17-AAG 100 mg/m^2, Mean): 193 L | Vd ([10]; human, plasma, intravenous, 100 mg/m2, Vz, Cohorts 1 & 2, 17-AAG 100 mg/m^2, Median): 188 L | half-life ([10]; human, plasma, intravenous, 100 mg/m2, t1/2, Cohorts 1 & 2, 17-AAG 100 mg/m^2, Mean): 2.49 h | half-life ([10]; human, plasma, intravenous, 100 mg/m2, t1/2, Cohorts 1 & 2, 17-AAG 100 mg/m^2, Median): 2.29 h | AUC ([10]; human, plasma, intravenous, 150 mg/m2, AUCextra, Cohorts 3 & 4, 17-AAG 150 mg/m^2, Mean): 256 ng·h/mL | AUC ([10]; human, plasma, intravenous, 150 mg/m2, AUCextra, Cohorts 3 & 4, 17-AAG 150 mg/m^2, Median): 199 ng·h/mL | AUC(0-t) ([10]; human, plasma, intravenous, 150 mg/m2, AUClast, Cohorts 3 & 4, 17-AAG 150 mg/m^2, Mean): 5770 ng·h/mL | AUC(0-t) ([10]; human, plasma, intravenous, 150 mg/m2, AUClast, Cohorts 3 & 4, 17-AAG 150 mg/m^2, Median): 4870 ng·h/mL | Clearance ([10]; human, plasma, intravenous, 150 mg/m2, Clearance, Cohorts 3 & 4, 17-AAG 150 mg/m^2, Mean): 850 mL/min | Clearance ([10]; human, plasma, intravenous, 150 mg/m2, Clearance, Cohorts 3 & 4, 17-AAG 150 mg/m^2, Median): 843 mL/min | Cmax ([10]; human, plasma, intravenous, 150 mg/m2, Cmax, Cohorts 3 & 4, 17-AAG 150 mg/m^2, Mean): 3470 ng/mL | Cmax ([10]; human, plasma, intravenous, 150 mg/m2, Cmax, Cohorts 3 & 4, 17-AAG 150 mg/m^2, Median): 2740 ng/mL | MRT ([10]; human, plasma, intravenous, 150 mg/m2, MRT, Cohorts 3 & 4, 17-AAG 150 mg/m^2, Mean): 2.89 h | MRT ([10]; human, plasma, intravenous, 150 mg/m2, MRT, Cohorts 3 & 4, 17-AAG 150 mg/m^2, Median): 2.9 h | Tmax ([10]; human, plasma, intravenous, 150 mg/m2, Tmax, Cohorts 3 & 4, 17-AAG 150 mg/m^2, Mean): 1 h | Tmax ([10]; human, plasma, intravenous, 150 mg/m2, Tmax, Cohorts 3 & 4, 17-AAG 150 mg/m^2, Median): 0.97 h | Vd ([10]; human, plasma, intravenous, 150 mg/m2, Vss, Cohorts 3 & 4, 17-AAG 150 mg/m^2, Median): 151 L | Vd ([10]; human, plasma, intravenous, 150 mg/m2, Vz, Cohorts 3 & 4, 17-AAG 150 mg/m^2, Mean): 166 L | half-life ([10]; human, plasma, intravenous, 150 mg/m2, t1/2, Cohorts 3 & 4, 17-AAG 150 mg/m^2, Mean): 2.4 h | half-life ([10]; human, plasma, intravenous, Terminal elimination half-life, cohorts 1-4 combined): 2.43 ± 0.9 h | Clearance ([10]; human, plasma, intravenous, Total systemic clearance, cohorts 1-4 combined): 860 mL/min | Vd ([10]; human, plasma, intravenous, distributive volume VSS, cohorts 1-4 combined): 153 ± 62.3 L | survival analysis [11]: significantly prolonged median overall survival | effect of exposure on client proteins [12]: depletion of Raf-1, c-Akt, and Erk1/2 | dose limiting toxicities ([13]; at the 80 mg/m^2 dose, daily x5): hepatitis, abdominal pain, nausea, dyspnea | Cmax ([13]; read-out: plasma Cmax, 80 mg/m^2 dose level): 2700 nM
